Measured values reported in article PMC4779111, “A Human Renal Proximal Tubule Cell Line with Stable Organic Anion Transporter 1 and 3 Expression Predictive for Antiviral-Induced Toxicity” (The AAPS Journal, 2016).
Where two headings read alike, the source gives them in different places.

How the values were obtained:
[1] = biological target: T1, OAT3 (Homo sapiens, UniProt Q8TCC7); parameters: host or cells: ciPTEC (human conditionally immortalized proximal tubule epithelial cells), lentiviral transduction; conditions: substrate sitagliptin, CHO-OAT3; read-out: IC50 (literature); cited from earlier work
T1 sequence (Q8TCC7 1-542): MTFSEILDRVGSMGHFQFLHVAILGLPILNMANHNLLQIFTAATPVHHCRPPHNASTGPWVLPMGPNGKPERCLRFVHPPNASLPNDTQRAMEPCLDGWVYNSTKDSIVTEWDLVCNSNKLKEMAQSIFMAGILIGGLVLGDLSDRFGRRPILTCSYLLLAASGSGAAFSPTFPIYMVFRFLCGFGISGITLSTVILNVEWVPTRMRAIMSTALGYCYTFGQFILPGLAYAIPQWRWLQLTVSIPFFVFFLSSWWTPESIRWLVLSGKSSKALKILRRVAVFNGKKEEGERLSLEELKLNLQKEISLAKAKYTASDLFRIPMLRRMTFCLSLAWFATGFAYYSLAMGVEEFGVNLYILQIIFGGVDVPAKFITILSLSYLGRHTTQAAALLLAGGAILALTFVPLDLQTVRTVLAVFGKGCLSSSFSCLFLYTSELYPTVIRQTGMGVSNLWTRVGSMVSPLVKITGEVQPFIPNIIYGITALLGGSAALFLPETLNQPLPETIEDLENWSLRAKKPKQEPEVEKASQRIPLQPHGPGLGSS

[2] = biological target: T1, OAT3; conditions: substrate estrone sulfate, Xenopus-OAT3; read-out: IC50 (literature); cited from earlier work
[3] = biological target: OCT2 (Homo sapiens, UniProt O15244); conditions: ASP+ 1 µM, 60 min, HBSS 37°C; similar IC50 in ciPTEC parent, ciPTEC-OAT1, ciPTEC-OAT3 (p>0.05)
Sequence of OCT2 (O15244 whole entry): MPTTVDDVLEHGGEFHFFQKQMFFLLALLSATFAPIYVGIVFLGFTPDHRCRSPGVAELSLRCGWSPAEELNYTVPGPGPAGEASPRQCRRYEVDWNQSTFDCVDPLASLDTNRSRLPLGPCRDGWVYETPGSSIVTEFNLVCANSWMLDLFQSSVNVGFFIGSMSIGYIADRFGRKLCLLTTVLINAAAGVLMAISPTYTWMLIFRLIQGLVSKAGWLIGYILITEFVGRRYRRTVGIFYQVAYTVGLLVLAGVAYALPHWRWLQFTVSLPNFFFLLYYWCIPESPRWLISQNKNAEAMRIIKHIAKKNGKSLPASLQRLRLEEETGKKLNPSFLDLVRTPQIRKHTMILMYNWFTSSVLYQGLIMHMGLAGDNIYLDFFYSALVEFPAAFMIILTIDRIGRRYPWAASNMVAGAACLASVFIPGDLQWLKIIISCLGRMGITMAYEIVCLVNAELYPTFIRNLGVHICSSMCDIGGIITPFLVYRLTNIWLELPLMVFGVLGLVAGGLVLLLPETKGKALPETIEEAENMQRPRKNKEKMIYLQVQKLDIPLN
Description: Supplementary Figure S1. […] ASP+ uptake (1 […]
µM) by ciPTEC parent, ciPTEC-OAT1 and ciPTEC-OAT3 when co-incubated with OCT2-substrate […]
The lines represent the fit according to a one-site competition model. Values are expressed as ±SEM, (ciPTEC, n=3; ciPTEC- […]
OAT1, n=4; ciPTEC-OAT3, n=2.
(1 picture or pasted object on this page, not shown here)

[4] = biological target: T2, OAT1 (Homo sapiens, UniProt Q4U2R8); assay: Inhibition of OAT-mediated fluorescein uptake in ciPTEC-OAT1; assay type: cell-based; parameters: host or cells: ciPTEC (human conditionally immortalized proximal tubule epithelial cells), lentiviral transduction
T2 sequence (Q4U2R8 1-563): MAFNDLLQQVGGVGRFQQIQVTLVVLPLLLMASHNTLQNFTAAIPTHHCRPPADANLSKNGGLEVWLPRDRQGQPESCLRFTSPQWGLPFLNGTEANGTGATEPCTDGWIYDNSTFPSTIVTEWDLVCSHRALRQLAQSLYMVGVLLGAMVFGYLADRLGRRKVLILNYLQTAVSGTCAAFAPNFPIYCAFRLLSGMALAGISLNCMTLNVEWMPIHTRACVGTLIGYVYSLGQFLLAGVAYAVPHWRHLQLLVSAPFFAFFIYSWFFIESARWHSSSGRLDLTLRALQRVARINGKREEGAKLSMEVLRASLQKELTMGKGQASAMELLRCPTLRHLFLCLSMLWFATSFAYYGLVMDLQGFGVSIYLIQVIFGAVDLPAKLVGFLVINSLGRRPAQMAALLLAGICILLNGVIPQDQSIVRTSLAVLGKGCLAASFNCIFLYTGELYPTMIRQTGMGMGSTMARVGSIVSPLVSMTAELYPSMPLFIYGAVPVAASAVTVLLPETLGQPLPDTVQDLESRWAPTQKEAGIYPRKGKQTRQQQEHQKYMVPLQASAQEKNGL
Description: (§1) All chemicals were obtained from Sigma, unless stated otherwise. Uptake was stopped by washing three times with ice-cold HBSS (4°C).
(§2) Non-linear regression with variable slope constraining the top to 100% was used to fit the data after background subtraction with GraphPad Prism. Statistics was performed by two-way ANOVA (two-tailed, α = 0.05) using GraphPad Prism as well. All data is presented as mean ± SEM of at least three separate experiments (n = 3) performed in triplicate, unless stated otherwise.

[5] = biological target: T1, OAT3; assay: Inhibition of OAT-mediated fluorescein uptake in ciPTEC-OAT3
Description: as §1, §2

[6] = tested on: ciPTEC parent; assay: MTT viability assay, ciPTEC parent; assay type: cell-based, human; conditions: 50 μM (10× Cmax) with MK571 and KO143
Description: Briefly, monolayers of ciPTEC (96-wells) were exposed to antivirals in serum-free medium (SFM) on day 6 of maturation.
as §2

[7] = tested on: ciPTEC-OAT3; assay: MTT viability assay, ciPTEC-OAT3; assay type: cell-based, human
Description: Cell toxicity was analyzed further in presence of MRP and BCRP efflux inhibitors MK571 (5 μM) and KO143 (10 μM).

[8] = parameters: method as in PMID 19445515; conditions: cited from earlier work
[9] = plasma, maximal free plasma concentration, 47 (zidovudine), cited from earlier work
[10] = tested on: ciPTEC-OAT1; assay: MTT viability assay, ciPTEC-OAT1; assay type: cell-based, human

| Inhibition of ASP+ uptake at OCT2 [3] | SMILES | IC50 [1] [µM] | IC50 [2] [µM] | IC50 at 10 min ([4]; human, ciPTEC-OAT1 cells (mature monolayers), probe fluorescein (1 μM)) [µM] | IC50 [5] [µM] | Cell viability in presence of efflux inhibitors [6] | Cell viability in presence of efflux inhibitors ([7]; ciPTEC-OAT3, 50 μM (10× Cmax) with MK571 and KO143) | Cell viability (MTT), concentration and time dependence ([7]; ciPTEC-OAT3, 24, 48 and 72 h) | IC50 [4] [µM] | Fraction eliminated via the urine without metabolic alterations [8] [%] | Cmax ([9]; first-listed (lower) value per drug, ref 40 (adefovir), 42 (cidofovir), 45 (tenofovir)) [µM] | Cmax ([9]; second-listed (higher) value per drug, ref 41 (adefovir), 43 (cidofovir), 46 (tenofovir)) [µM] | Cell viability in presence of efflux inhibitors ([10]; ciPTEC-OAT1, 50 μM (10× Cmax) with MK571 and KO143) | Cell viability (MTT), concentration and time dependence ([10]; ciPTEC-OAT1, 24, 48 and 72 h) |
| --- | --- | --- | --- | --- | --- | --- | --- | --- | --- | --- | --- | --- | --- | --- |
| significant inhibition | CN/C(=N/CCSCc1nc[nH]c1C)NC#N [Cimetidine, cimetidine] | 79 | 53 | 654 ± 291 | 215 ± 162 | – | – | – | – | – | – | – | – | – |
| – | Cc1cn([C@H]2C[C@H](N=[N+]=[N-])[C@@H](CO)O2)c(=O)[nH]c1=O [Zidovudine, zidovudine] | – | – | – | 21 ± 4 | did not affect cell viability | did not affect cell viability | did not affect cell viability | 14 ± 7 | 23 | 5.5 | 6.6 | did not affect cell viability | did not affect cell viability |
